# Source: paper PMC10485906, “Development of a Dihydroquinoline–Pyrazoline GluN2C/2D-Selective Negative Allosteric Modulator of the N-Methyl-D-aspartate Receptor” (ACS Chemical Neuroscience, 2023)
# Tested on: Tsc1^± mice
# Assay: Acute epileptic mouse model, EEG recordings of seizures
# Type: in vivo
# Experimental: All experiments were conducted in agreement with the requirements of the European Directive 2010/63/EU. Mice were housed in ventilated, light-tight, sound-isolated chambers under a standard 12:12 light/dark cycle (light on at […]) with food and water available ad libitum. C57BL/6J wild-type (Tsc1^+/+) females from Janvier Laboratories (France) were crossed with heterozygote Tsc1^± male mice with the genetic background B6;129S4-Tsc1^tm1.1Djk/Nci. The genotyping of pups issuing from this cross-breeding was performed on tail tissue samples at postnatal day P9. The study was conducted in Tsc1^± male mice at P14–16. Pups from at least three deliveries for each condition were studied to minimize the potential sampling bias.
# The DQP derivative 2i was diluted in DMSO at a concentration of 100 mM before being added to 100 to 150 μL of saline solution and intraperitoneally injected in mice. Intraperitoneal injection was administered during the EEG recordings at three different concentrations: 7, 14, and 28 mg/kg to estimate the dose–response relationship.
# Experiments were performed on postnatal days of P14 and P16 male Tsc1^± mice. Surgery was performed under isoflurane anesthesia and lidocaine analgesia. During recordings, the head was fixed to the frame of a stereotaxic apparatus by attached bars; animals were surrounded by a cotton nest and heated via a thermal pad (36.6–37.7 °C). A silver chloride reference electrode was placed in the cerebellum. EEG recordings were performed with nonanaesthetized head-restrained Tsc1^± mice. […] Recordings were analyzed offline using Clampfit (Molecular Devices, San Jose) and Origin (MicroCal, Northampton, MA) software. […] During EEG recordings, animals were monitored visually to determine the behavioral correlates of each electrographic epileptic discharge. […]
structure (smiles),measurement,setting,value
O=C(O)CC(F)(F)C(=O)N1N=C(c2c(-c3ccc(Cl)cc3)c3ccccc3[nH]c2=O)CC1c1ccc(Cl)cc1 (stereo not drawn) [2i],effect on spontaneous electrographic seizures,"14 mg/kg IP, male Tsc1^± mice P14–16, neocortical layers 2/3 and 4",significantly reduced spontaneous electrographic seizures
same,effect on epileptic events,"28 mg/kg IP, male Tsc1^± mice P14–16",epileptic events stopped immediately
same,effect on number of epileptic events,"murine model of TSC-induced epilepsy, abstract",significantly reduced the number of epileptic events
